Measurements from patent publication US10603357B2, “Therapeutic TREM-1 peptides” (Universite de Lorraine, priority 2004, dated 2020).

Columns and labels:
Format in all cases: in vivo, mouse
[1] = tested on: mice; assay: DSS colitis model in mice, hP5 (Example 7)
Procedure: On day 0 of the study, the water supply was removed and replaced with 3% Dextran Sulfate Sodium (DSS) From day 0 to day 6, this solution was the only source of fluids. Water was administered for the rest of the experiment (day 7-11). Healthy controls received water only.
From day 3 to day 10 mice were treated with either hP5, or a sequence-scrambled control peptide. Peptides were dissolved in DMSO at 10 mg/ml and stored at +4° C. Before administration, the stock solution was diluted 1:10 in water 10% Solutol® HS 15 (BASF). Final vehicle concentrations: 1% DMSO, 10% solutol in water. 200 μl of these freshly prepared solutions of hP5, its scrambled control or vehicle were injected intraperitoneally with a 25 G needle.
Animals were weighted daily and monitored on days 3, 4, 5, 6, 7 and 10 for rectal bleeding and stool consistency. For each group, the disease activity index (DAI) was determined by evaluating changes in weight, stool consistency and presence of gross blood during the study, as described below:
To determine the presence of occult blood in stool, a pea-sized stool sample was placed on a slide. Then two drops of reagent (Hemocult Sensa, Beckman Coulter) were placed onto the stool sample on the slide and a change of colour was observed. The presence of occult blood was graded using a score of 0 for no colour; 1 for a very light blue (+/−) colour taking over 30 seconds to appear, 2 for a blue colour developing in […] (+); 3 for an immediate change in colour (++) and 4 for gross blood observable on the slide.
On day 11 mice were euthanized by cervical dislocation to allow colon length evaluation. An incision was done in the abdomen to expose the colon. The stool in the colon was removed flushing with saline. The entire colon from cecum to anus was removed and the length was measured and reported as colon length (cm).
Data were analyzed using Graph Pad Prism. Results are given as means±standard error of the mean. The BW score, stool score and blood score were analyzed using two-way ANOVA test, Bonferroni post test. Colon length was analysed using one-way ANOVA, Dunn's post test. *P≤0.05; **P≤0.01; ***P≤0.001

[2] = tested on: C57BL/6 mice; assay: Cecal Ligation and Puncture model in mice, hP5 (Example 6); details: 200 μl i.p. at −1 h, 0 h, +4 h and +24 hours; n=15/group
Procedure: Mortality was followed twice a day for 10 days. Data were analyzed using GraphPad Prism Survival curve analysis.
For the experiment the mice underwent a standardized preparation for laparotomy (anaesthesia with 2% inhaled isoflurane in oxygen, shaving with animal clippers, alcohol scrub). A 1 cm incision was made on the midline. The cecum was exposed and will be tightly ligated at 50-80% over its base with a 4-0 silk suture avoiding bowel obstruction. The cecum was then punctured once with a 23G needle. The cecum was gently squeezed until feces be just visible through the puncture, and placed again in the abdominal cavity. The incision was thereafter be closed with a 4-0 silk. 200 μl of hP5 or its scrambled peptide control were freshly dissolved in water 10% DMSO, 9% solutol and injected intraperitoneally with a 22 G needle at the following time points: −1, 0, +4, +24. No fluid resuscitation was administered.
Survival and Moribundity were observed twice a day for 10 days.

[3] = tested on: BALB/c mice; assay: endotoxin-induced septic shock in mice, hP5 (Example 5); details: 200 microliters peptide i.p. at −1 h, 0 h, +4 h, 200 microg LPS i.p., 15 mice per group
Procedure: Septic shock was induced in male Balb/c mice (n=15/group) with […] of LPS as described in Material and Methods. hP5 peptide or control were administered at the following time points: −1 h, 0 h, +1 h+4 h. Mortality was followed twice a day for 7 days. Data were analysed using GraphPad Prism Survival curve analysis.
For the experiment, male BALB/c mice (19-21 g) were randomly grouped (15 mice per group) and injected intraperitoneally (i.p.) with 200 microg of LPS from E. coli 0111:B4 (Sigma). A blinded investigator performed all injections. 200 microliters of TREM-1 peptides dissolved in water 10% DMSO, 9% Solutol were administered intraperitoneally at −1 h, 0 h, +1 h, +4 h prior and after LPS injection. Viability of treated mice was monitored twice a day for 7 days.

LQVEDSGLYQCVIYQPP (listed as Homo sapiens) [hP5]
Disease Activity Index (DAI) score ([1]; 3% DSS day 0-6, peptide i.p. daily from day 3, day 5, mean ± standard error): 1.95±0.170 | DAI inhibition compared to DSS+vehicle or DSS+scrambled peptide ([1]; day 5): ~50% | Stool score (stool consistency) ([1]; day 10, mean ± standard error): 0.71±0.474 | blood score (haemoccult / gross blood) ([1]; day 10, mean ± standard error): 0.43±0.202 | weight loss, expressed as a score ([1]; day 10, mean ± standard error): 2.00±0.436 | colon length ([1]; day 11, mean ± standard error): 7.41±0.237 cm | mice alive at 10 days after CLP [2]: 66.6% | mice surviving at 72 hours after CLP [2]: 73.3% | animals alive 7 days after LPS injection [3]: 80%
